According to paper PMC6556873, “Rapid Covalent-Probe Discovery by Electrophile-Fragment Screening” (Journal of the American Chemical Society, 2019):
Like-named read-outs stand apart in the source and are kept apart here.

Columns and labels:
[1] = target: T1, NUDT7 (Homo sapiens, UniProt P0C024); set-up: Intact protein LC/MS covalent labelling, fragments in pools of five, 200 uM each, 4 °C; conditions: 24 h, 4 °C, pool of five; 200 µM; covalent
T1 construct: residues 14-235, E. coli, pNIC28-Bsa4, N-terminal His6 tag removed by TEV, construct 26672 Da
T1 sequence (P0C024 14-235): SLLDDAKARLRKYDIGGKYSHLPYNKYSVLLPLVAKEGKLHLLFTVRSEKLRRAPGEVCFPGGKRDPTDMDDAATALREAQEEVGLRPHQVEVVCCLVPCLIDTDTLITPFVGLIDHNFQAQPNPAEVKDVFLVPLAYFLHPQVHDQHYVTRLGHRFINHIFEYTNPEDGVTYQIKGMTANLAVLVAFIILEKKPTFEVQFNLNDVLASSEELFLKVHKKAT

[2] = target: T2, OTUB2 (OTUB2A) (Homo sapiens, UniProt Q96DC9); set-up: Intact protein LC/MS covalent labelling, fragments in pools of five, 200 uM each, 4 °C; conditions: 24 h, 4 °C, pool of five; 200 µM; covalent
T2 construct: full length residues 1-234, E. coli BL21(DE3)-R3, His tag removed by TEV, construct 27312 Da
T2 sequence (Q96DC9 1-234): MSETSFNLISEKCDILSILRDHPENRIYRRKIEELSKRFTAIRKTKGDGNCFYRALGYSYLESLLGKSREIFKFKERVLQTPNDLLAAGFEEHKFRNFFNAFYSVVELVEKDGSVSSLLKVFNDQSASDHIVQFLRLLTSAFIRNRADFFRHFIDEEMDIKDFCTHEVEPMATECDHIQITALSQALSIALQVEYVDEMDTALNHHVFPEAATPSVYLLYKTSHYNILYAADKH

[3] = target: T3, BSA (Bos taurus, UniProt P02769); set-up: Intact protein LC/MS covalent labelling, fragments in pools of five, 200 uM each, 4 °C; conditions: 24 h, 4 °C, pool of five; 200 µM; covalent
T3 construct: gene ALB
T3 sequence (P02769 whole entry, the tested form may be a part): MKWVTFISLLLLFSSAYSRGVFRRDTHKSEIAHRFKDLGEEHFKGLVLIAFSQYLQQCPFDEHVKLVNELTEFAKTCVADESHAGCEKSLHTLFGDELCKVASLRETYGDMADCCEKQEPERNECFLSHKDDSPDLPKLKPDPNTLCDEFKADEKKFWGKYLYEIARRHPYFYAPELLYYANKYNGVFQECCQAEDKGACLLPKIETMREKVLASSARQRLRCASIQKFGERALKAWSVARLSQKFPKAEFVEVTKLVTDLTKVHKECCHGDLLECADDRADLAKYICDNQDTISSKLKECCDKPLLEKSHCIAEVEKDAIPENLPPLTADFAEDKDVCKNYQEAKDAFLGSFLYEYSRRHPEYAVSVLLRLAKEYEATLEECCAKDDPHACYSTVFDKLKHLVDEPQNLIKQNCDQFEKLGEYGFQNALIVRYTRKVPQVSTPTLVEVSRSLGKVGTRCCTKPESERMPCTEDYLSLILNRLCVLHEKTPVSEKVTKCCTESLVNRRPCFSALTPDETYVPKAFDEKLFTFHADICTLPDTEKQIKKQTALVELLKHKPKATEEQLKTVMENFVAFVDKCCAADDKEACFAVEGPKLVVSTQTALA

[4] = target: T4, PCAF (Homo sapiens, UniProt Q92831); set-up: Intact protein LC/MS covalent labelling, fragments in pools of five, 200 uM each, 4 °C; conditions: 24 h, 4 °C, pool of five; 200 µM; covalent
T4 construct: gene KAT2B
T4 sequence (Q92831 whole entry, the tested form may be a part): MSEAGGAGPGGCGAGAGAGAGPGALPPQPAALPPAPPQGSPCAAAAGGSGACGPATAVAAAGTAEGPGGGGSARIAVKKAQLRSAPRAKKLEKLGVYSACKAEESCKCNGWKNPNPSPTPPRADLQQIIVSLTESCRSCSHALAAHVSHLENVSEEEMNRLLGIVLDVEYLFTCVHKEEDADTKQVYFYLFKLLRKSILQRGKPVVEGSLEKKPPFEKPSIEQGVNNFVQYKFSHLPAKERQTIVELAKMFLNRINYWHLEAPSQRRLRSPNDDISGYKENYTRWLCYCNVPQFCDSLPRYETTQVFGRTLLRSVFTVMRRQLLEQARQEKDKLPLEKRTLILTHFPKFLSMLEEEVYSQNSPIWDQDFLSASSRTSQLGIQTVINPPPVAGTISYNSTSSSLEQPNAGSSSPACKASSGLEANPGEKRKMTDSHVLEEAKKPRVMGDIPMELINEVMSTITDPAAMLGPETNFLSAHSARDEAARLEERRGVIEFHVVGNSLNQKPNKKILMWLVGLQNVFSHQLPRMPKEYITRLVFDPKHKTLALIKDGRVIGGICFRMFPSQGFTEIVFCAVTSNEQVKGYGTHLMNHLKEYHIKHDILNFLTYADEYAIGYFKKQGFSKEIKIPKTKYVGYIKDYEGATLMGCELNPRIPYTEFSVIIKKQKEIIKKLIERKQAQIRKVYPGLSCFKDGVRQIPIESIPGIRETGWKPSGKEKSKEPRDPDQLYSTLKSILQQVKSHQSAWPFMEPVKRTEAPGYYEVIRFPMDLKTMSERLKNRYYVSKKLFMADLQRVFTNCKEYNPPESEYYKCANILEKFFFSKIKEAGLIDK

[5] = target: T5, NNMT (hNNMT) (Homo sapiens, UniProt P40261); set-up: Intact protein LC/MS covalent labelling, fragments in pools of five, 200 uM each, 4 °C; conditions: 24 h, 4 °C, pool of five; 200 µM; covalent
T5 construct: wild type, N-terminal His6 tag kept (no cleavage described), E. coli, construct 31248 Da
T5 sequence (P40261 1-264): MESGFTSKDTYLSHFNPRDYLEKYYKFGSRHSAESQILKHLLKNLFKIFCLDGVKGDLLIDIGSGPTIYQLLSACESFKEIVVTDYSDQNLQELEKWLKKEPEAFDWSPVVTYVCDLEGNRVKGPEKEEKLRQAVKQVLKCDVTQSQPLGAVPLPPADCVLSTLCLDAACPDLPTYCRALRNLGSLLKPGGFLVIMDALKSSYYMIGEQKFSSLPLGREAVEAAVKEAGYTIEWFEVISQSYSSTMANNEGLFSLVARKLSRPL

[6] = in vitro; set-up: species or system CCD841, HEK293; conditions: human, hb2 cells, read-out: HB-2 Cells Viability (%)
[7] = in vitro; set-up: species or system HB2, HEK293; conditions: human, ccd841 cells
[8] = in vitro; set-up: species or system HB2, CCD841; conditions: human, hek293 cells

Structure (SMILES)	NUDT7 [1]	OTUB2 [2]	BSA [3]	PCAF [4]	NNMT [5]	viability at 48 h, 10 µM [6] [%]	viability at 48 h, 10 µM [7] [%]	viability at 48 h, 10 µM [8] [%]
O=C(CCl)Nc1ccccc1N1CCCC1 [PCM-0102135]	0	0	0	0	0	98.5	95	91.3
O=C(CCl)NC1CCS(=O)(=O)C1 (centres unmarked) [PCM-0102138]	0	0	0	0	0	92.6	84.2	113
C=CC(=O)Nc1ccc(N2CCCC2=O)cc1 [PCM-0102145]	0	0	0	0	0.14	101	125	91.4
N#CCc1ccc(NC(=O)CCl)cc1 [PCM-0102148]	0.1	0.43	0	0	0.27	11.8	32.2	2.1
O=C(CCl)NCc1ccccc1F [PCM-0102149]	0	0.62	0	0	0	86.4	63.7	71.3
O=C(CCl)Nc1ccccc1Cl [PCM-0102152]	0	0.2	0	0	0	75.4	78.5	76.1
COc1ccc(NC(=O)CCl)cc1 [PCM-0102156]	0	0.52	0	0	0.25	24.7	42.7	2.4
O=C(CCl)Nc1ccccc1F [PCM-0102158]	0	0.51	0	0	0	50	59	34.2
CCc1nnc(NC(=O)CCl)s1 [PCM-0102166]	0.21	0	0	0	0.42	94.5	92.5	95.8
Cl.O=C(CCl)N1CCN(Cc2ccc(Br)s2)CC1 [PCM-0102169]	0	0	0	0	0	8.8	33	8.6
O=C(CCl)Nc1ccccc1C(F)(F)F [PCM-0102170]	0	0	0	0	0.12	96.7	99.1	72.6
O=C(CCl)Nc1cccc(N2CCCC2=O)c1 [PCM-0102179]	0.12	0.47	0	0	0.23	20.8	52.4	1.8
O=C(CCl)Nc1c(F)cc(F)cc1Br [PCM-0102189]	0.1	0	0	0	0.11	79.5	59.6	72.4
O=C(CCl)Nc1cccc(Cl)c1 [PCM-0102198]	0.28	0.37	0	0	0	9	41.1	1.8
Cc1cc(Cl)ccc1NC(=O)CCl [PCM-0102214]	0.08	0.39	0	0	0.3	44.6	67.9	5.5
CC(NC(=O)CCl)c1ccc(F)cc1 (centres unmarked) [PCM-0102228]	0.07	0.2	0	0	0	84.6	83.2	63.8
CC(C)N(C(=O)CCl)c1ccccc1 [PCM-0102272]	0.22	0	0	0	0	58.6	17.7	16

The next lines start with results.

NUDT7 [1]	OTUB2 [2]	BSA [3]	PCAF [4]	NNMT [5]	Structure (SMILES)	viability at 48 h, 10 µM [6] [%]	viability at 48 h, 10 µM [7] [%]	viability at 48 h, 10 µM [8] [%]
0.12	0	0	0	0	O=C(CCl)N1CCN(S(=O)(=O)c2cccs2)CC1 [PCM-0102241]	8.9	49.1	8.9
0.09	0	0.06	0	0.1	O=C(CCl)N1CCN(C(=O)c2ccco2)CC1 [PCM-0102248]	78.1	73.2	35.6
0	0	0	0	0	O=C(CCl)NC1CCCC1 [PCM-0102250]	71.9	69.1	58.7
0.37	0.86	0	0	0.34	N#Cc1oc2ccccc2c1NC(=O)CCl [PCM-0102252]	3.8	34.7	3.4
0	0.24	0	0	0.23	CCOC(=O)N1CCC(NC(=O)CCl)CC1 [PCM-0102255]	61.8	61.3	74.2
0	0	0	0	0	CNC(=O)c1ccc(NC(=O)CCl)cc1 [PCM-0102267]	20	32.5	2.2
0	0.19	0	0	0	Cl.O=C(CCl)N1CCN(Cc2cccc(Cl)c2)CC1 [PCM-0102269]	6.3	24.2	7.9
0	0	0	0	0	C=CC(=O)Nc1ccc(C(=O)O)cc1 [PCM-0102271]	111	94.2	95.1
0	0	0	0	0	O=C(CCl)Nc1cccnc1Cl [PCM-0102274]	84.4	88.8	81.4
0	0.09	0.11	0	0.26	Cl.O=C(CCl)N1CCN(Cc2ccc(Cl)s2)CC1 [PCM-0102277]	8.6	37.3	18.2
0.14	0	0	0	0	O=C(CCl)N1CCN(S(=O)(=O)c2ccccc2F)CC1 [PCM-0102281]	7.1	62.6	9.5
